The test system of test [1] is KB. Briefly: In vitro cellular protein-DNA complex formation at a concentration of 50 uM. It counts as functional, Homo sapiens.
The target of test [2] is T1, DNA topoisomerase 1 (Homo sapiens) (UniProt P11387).
T1 sequence (whole entry): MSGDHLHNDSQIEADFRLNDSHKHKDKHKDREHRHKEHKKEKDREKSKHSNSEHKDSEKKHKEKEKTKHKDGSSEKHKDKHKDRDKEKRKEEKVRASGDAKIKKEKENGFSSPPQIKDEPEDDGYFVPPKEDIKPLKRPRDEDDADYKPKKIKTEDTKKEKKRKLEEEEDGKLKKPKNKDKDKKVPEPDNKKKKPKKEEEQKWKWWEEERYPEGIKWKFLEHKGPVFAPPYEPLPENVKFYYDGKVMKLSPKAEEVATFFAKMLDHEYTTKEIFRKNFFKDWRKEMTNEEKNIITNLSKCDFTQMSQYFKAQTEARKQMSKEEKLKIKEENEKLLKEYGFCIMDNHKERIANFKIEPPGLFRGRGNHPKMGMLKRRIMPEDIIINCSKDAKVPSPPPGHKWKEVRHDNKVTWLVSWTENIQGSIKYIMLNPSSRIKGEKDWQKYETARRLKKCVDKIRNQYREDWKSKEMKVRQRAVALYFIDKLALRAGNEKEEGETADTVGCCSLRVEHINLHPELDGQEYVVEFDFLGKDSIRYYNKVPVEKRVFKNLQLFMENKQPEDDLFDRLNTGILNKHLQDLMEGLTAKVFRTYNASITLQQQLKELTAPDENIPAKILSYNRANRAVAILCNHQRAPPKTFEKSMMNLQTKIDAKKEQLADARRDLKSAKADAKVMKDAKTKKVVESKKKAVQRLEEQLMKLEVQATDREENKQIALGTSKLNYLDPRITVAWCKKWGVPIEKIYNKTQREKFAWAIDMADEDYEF
In words: In vitro inhibition of DNA topoisomerase I activity (ATP-independent DNA relaxation) at a concentration of 50 uM; no activity.

For test [3], the system named is KB. In words: In vitro topoisomerase II -DNA complex formation at a concentration of 50 uM. It counts as functional, Homo sapiens.
The test system of test [4] is KB. In words: In vitro topoisomerase II -DNA complex formation at a concentration of 10 uM; no activity. It counts as functional, cell-based. The settings on record: Homo sapiens.
Test [5] concerns KB. In words: In vitro cellular protein-DNA complex formation at a concentration of 50 uM; no activity. It counts as functional, cell-based. The settings on record: Homo sapiens.
Test [6] deals with KB. In words: In vitro topoisomerase II -DNA complex formation at a concentration of 100 uM; no activity. It counts as functional, cell-based. The settings on record: Homo sapiens.
For test [7], the target named is DNA topoisomerase 2-beta (Homo sapiens) (UniProt Q02880). In words: In vitro inhibition of DNA topoisomerase II activity (DNA unknotting) at a concentration of 50 uM.
Chain of DNA topoisomerase 2-beta (Homo sapiens) (Q02880 whole entry): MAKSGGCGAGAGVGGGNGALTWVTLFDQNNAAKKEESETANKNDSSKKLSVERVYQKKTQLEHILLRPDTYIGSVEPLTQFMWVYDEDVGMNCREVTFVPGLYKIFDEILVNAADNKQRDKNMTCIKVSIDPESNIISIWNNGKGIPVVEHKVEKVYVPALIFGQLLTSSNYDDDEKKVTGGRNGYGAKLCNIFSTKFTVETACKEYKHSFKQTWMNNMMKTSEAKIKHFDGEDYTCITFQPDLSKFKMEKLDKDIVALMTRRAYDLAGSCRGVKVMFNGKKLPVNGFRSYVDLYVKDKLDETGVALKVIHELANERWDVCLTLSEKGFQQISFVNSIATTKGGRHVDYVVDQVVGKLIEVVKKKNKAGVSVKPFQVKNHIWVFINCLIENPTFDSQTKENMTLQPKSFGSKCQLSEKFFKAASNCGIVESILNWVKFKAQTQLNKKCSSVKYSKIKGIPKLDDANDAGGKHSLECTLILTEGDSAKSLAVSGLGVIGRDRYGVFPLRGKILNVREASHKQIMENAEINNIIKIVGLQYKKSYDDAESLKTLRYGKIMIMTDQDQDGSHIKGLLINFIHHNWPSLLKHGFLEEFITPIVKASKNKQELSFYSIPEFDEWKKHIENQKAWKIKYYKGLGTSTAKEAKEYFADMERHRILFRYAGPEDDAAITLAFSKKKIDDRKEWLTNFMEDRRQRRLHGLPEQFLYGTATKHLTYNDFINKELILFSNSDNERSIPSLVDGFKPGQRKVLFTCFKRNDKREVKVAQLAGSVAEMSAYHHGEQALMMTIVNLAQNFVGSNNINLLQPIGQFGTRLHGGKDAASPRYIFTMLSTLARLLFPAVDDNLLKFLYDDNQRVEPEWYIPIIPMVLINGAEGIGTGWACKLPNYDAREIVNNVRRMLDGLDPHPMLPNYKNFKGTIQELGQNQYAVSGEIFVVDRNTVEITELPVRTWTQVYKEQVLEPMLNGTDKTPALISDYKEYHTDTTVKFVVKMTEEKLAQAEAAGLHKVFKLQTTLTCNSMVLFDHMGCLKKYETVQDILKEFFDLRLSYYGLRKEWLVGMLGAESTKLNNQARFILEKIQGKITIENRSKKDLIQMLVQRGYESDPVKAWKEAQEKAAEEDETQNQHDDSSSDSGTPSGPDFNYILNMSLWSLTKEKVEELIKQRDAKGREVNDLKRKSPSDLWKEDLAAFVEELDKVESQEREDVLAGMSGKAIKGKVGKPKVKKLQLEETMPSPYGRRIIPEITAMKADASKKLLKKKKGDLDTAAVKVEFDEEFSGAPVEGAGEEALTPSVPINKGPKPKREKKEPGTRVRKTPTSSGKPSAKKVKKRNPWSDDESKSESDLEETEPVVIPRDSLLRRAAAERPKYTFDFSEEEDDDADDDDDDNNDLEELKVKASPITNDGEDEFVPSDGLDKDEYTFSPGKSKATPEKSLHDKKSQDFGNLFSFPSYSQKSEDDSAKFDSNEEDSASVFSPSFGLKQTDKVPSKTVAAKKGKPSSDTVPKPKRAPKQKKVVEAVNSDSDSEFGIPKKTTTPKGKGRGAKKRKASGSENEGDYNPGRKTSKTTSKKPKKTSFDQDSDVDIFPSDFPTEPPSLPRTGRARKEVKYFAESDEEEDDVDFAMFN
Test [8] relates to KB. In words: In vitro topoisomerase II -DNA complex formation at a concentration of 50 uM; no activity. The note with it: Homo sapiens. It counts as functional, cell-based.
Test [9] deals with KB. In words: In vitro topoisomerase II -DNA complex formation at a concentration of 1 uM; no activity. It counts as functional, cell-based. The settings on record: Homo sapiens.
Test [10] has as its target T1, DNA topoisomerase 1 (Homo sapiens). In words: In vitro inhibition of DNA topoisomerase I activity (ATP-independent DNA relaxation) at a concentration of 50 uM.

Structures are written as SMILES. Activity calls are given as the source filed them. The rule behind the calls is not given here.

Results on 8 compounds are retold here after ChEMBL document CHEMBL1128882, “Novel lignan derivatives as selective inhibitors of DNA topoisomerase II” (1995).

The inhibition is the change of the read-out against control, counted positive when it falls. In the case of `COc1cc([C@@H]2c3cc4c(cc3[C@@H](O[C@@H]3O[C@@H]5CO[C@@H](C)O[C@H]5[C@H](O)[C@H]3O)[C@H]3COC(=O)[C@H]23)OCO4)cc(OC)c1O` [ETOPOSIDE], the Complex formation in test [1] and in test [3] was 100% throughout. The inhibition entry in [2] was “inactive”.
As to `O=C(O[C@@H]1C[C@](O)(C(=O)O)C[C@@H](O)[C@H]1O)C1=Cc2cc(O)c(O)cc2[C@@H](c2ccc(O)c(O)c2)[C@@H]1C(=O)O[C@@H]1C[C@](O)(C(=O)O)C[C@@H](O)[C@H]1O`, the Complex formation result in [4], in test [5], in test [6], in test [8] and in [9] was “No activity” throughout. In test [7], this compound gave an inhibition of 100%. Moreover, the inhibition entry in [2] was “inactive”.
Regarding `COC(=O)C1=Cc2cc(O)c(O)cc2[C@@H](c2ccc(O)c(O)c2)[C@@H]1C(=O)OC`, the Complex formation result in [5] and in [8] was “No activity” in each case. In addition, the inhibition in test [7] came to 100%. Besides, the inhibition result in test [2] is “inactive”.
As to `O=C(O[C@@H]1C[C@](O)(C(=O)O)C[C@@H](O)[C@H]1O)C1=Cc2cc(O)c(O)cc2[C@H](c2ccc(O)c(O)c2)[C@H]1C(=O)O[C@@H]1C[C@](O)(C(=O)O)C[C@@H](O)[C@H]1O`, the Complex formation entry in [4], in test [5], in test [6], in test [8] and in test [9] was “No activity” throughout. The compound further had an inhibition in [7] of 100%. Further, the inhibition entry in test [2] is “inactive”.
Consider `O=C1OC(c2ccc(O)c(O)c2)C2C(=O)OC(c3ccc(O)c(O)c3)C12` (stereo not drawn), for which the inhibition in test [10] and in test [7] was 100% in each case.
As to `O=C(O[C@H](Cc1ccc(O)c(O)c1)C(=O)O)C1=Cc2cc(O)c(O)cc2[C@H](c2ccc(O)c(O)c2)[C@H]1C(=O)O[C@H](Cc1ccc(O)c(O)c1)C(=O)O`, the Complex formation entry in test [5] and in [8] was “No activity” in each case. In addition, the inhibition in [10] and in [7] was 100% each time.
For `O=C(O)C1=Cc2cc(O)c(O)cc2[C@@H](c2ccc(O)c(O)c2)[C@@H]1C(=O)O`, the inhibition in test [10] and in test [7] was 100% in each case.
For `O=C(O[C@H](Cc1ccc(O)c(O)c1)C(=O)O)C1=Cc2cc(O)c(O)cc2[C@@H](c2ccc(O)c(O)c2)[C@@H]1C(=O)O[C@H](Cc1ccc(O)c(O)c1)C(=O)O`, the Complex formation result in test [5] and in test [8] was “No activity” in each case. The inhibition in [10] and in test [7] was 100% each time.
